Laboratory results from ChEMBL document CHEMBL5380821, “Discovery of a PDZ Domain Inhibitor Targeting the Syndecan/Syntenin Protein-Protein Interaction: A Semi-Automated "Hit Identification-to-Optimization" Approach” (J Med Chem, 2023).
Active and inactive are the calls of the source. The calls are words filed in the database; no cut-off is given here.

Assays:
Syntenin-1/Syndecan-2 = Syntenin-1/Syndecan-2 (Homo sapiens, UniProt O00560); assay: Inhibition of full length N-terminal GST-tagged human syntenin-1 expressed in Escherichia coli ER2566/syndecan2 (unknown origin) interaction incubated for 16 hrs by HTRF assay
Sequence of Syntenin-1/Syndecan-2 (P34741 whole entry, one chain of several, further chain): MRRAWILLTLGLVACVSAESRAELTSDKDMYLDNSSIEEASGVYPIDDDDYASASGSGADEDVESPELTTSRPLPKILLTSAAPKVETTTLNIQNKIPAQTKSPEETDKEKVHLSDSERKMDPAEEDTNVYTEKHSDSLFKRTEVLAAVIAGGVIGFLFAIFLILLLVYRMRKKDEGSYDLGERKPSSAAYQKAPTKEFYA

[1] = target: T1, Syntenin-1/Syndecan-2 (Homo sapiens) (UniProt O00560+P34741); assay: Inhibition of full length N-terminal GST-tagged human syntenin-1 expressed in Escherichia coli ER2566/syndecan2 (unknown origin) interaction at 200 uM incubated for 16 hrs by HTRF assay relative to control
MDA-MB-231 [2] = assay: Cytotoxicity against wild-type human MDA-MB-231 cells assessed as reduction in cell viability upto 100 uM measured after 48 hrs by Annexin V-FITC staining based flow cytometric analysis; type: functional
[3] = target: GRASP55-JAMB (Homo sapiens) (UniProt Q9H8Y8+P57087); assay: Inhibition of N-terminal GST-tagged GRASP55 (unknown origin) expressed in Escherichia coli BL21 (DE3) cells/JAM-B (unknown origin) complex incubated for 16 hrs by HTRF assay
Sequence of GRASP55-JAMB (Homo sapiens) (P57087 whole entry, looked up, other chains not shown): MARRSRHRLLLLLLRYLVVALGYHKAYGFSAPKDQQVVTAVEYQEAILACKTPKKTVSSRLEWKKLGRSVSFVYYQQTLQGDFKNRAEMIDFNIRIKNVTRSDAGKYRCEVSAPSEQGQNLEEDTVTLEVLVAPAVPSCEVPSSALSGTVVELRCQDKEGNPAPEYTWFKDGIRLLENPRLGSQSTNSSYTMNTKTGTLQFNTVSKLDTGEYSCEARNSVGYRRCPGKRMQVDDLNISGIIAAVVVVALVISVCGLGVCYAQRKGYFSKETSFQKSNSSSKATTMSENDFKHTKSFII

MDA-MB-231 [4] = assay: Inhibition of cell migration in wild-type human MDA-MB-231 cells assessed as decrease in migration speed at 100 uM incubated for 24 hrs by 2D phase contrast video microscopic analysis; type: functional, cell-based
MDA-MB-231 [5] = assay: Cytotoxicity against human MDA-MB-231 cells with syntenin CRISPR/Cas9 knockout assessed as reduction in cell viability upto 100 uM measured after 48 hrs by Annexin V-FITC staining based flow cytometric analysis; type: functional
MDA-MB-231 [6] = assay: Inhibition of cell migration in human MDA-MB-231 cells with syntenin CRISPR/Cas9 knockout assessed as decrease in migration speed at 100 uM incubated for 24 hrs by 2D phase contrast video microscopic analysis; type: functional, cell-based
Syntenin-1 = target: T2, Syntenin-1 (Homo sapiens, UniProt O00560); assay: Binding affinity to full length N-terminal GST-tagged human syntenin-1 expressed in Escherichia coli ER2566 assessed as dissociation constant by ITC analysis
T2 sequence (O00560 whole entry): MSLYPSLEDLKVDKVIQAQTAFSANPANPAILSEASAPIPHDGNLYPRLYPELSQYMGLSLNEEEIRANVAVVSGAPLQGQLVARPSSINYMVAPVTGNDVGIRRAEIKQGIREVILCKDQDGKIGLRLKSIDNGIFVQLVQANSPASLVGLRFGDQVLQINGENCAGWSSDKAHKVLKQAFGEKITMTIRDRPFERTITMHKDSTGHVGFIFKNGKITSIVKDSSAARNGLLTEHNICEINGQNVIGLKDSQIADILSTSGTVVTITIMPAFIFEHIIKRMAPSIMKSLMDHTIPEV

[7] = target: ERBIN-P0071 (Homo sapiens) (UniProt Q96RT1+Q99569); assay: Inhibition of N-terminal GST-tagged Erbin (unknown origin) expressed in Escherichia coli BL21 (DE3) cells/P0071 (unknown origin) complex incubated for 16 hrs by HTRF assay
Sequence of ERBIN-P0071 (Homo sapiens) (Q96RT1 whole entry, looked up): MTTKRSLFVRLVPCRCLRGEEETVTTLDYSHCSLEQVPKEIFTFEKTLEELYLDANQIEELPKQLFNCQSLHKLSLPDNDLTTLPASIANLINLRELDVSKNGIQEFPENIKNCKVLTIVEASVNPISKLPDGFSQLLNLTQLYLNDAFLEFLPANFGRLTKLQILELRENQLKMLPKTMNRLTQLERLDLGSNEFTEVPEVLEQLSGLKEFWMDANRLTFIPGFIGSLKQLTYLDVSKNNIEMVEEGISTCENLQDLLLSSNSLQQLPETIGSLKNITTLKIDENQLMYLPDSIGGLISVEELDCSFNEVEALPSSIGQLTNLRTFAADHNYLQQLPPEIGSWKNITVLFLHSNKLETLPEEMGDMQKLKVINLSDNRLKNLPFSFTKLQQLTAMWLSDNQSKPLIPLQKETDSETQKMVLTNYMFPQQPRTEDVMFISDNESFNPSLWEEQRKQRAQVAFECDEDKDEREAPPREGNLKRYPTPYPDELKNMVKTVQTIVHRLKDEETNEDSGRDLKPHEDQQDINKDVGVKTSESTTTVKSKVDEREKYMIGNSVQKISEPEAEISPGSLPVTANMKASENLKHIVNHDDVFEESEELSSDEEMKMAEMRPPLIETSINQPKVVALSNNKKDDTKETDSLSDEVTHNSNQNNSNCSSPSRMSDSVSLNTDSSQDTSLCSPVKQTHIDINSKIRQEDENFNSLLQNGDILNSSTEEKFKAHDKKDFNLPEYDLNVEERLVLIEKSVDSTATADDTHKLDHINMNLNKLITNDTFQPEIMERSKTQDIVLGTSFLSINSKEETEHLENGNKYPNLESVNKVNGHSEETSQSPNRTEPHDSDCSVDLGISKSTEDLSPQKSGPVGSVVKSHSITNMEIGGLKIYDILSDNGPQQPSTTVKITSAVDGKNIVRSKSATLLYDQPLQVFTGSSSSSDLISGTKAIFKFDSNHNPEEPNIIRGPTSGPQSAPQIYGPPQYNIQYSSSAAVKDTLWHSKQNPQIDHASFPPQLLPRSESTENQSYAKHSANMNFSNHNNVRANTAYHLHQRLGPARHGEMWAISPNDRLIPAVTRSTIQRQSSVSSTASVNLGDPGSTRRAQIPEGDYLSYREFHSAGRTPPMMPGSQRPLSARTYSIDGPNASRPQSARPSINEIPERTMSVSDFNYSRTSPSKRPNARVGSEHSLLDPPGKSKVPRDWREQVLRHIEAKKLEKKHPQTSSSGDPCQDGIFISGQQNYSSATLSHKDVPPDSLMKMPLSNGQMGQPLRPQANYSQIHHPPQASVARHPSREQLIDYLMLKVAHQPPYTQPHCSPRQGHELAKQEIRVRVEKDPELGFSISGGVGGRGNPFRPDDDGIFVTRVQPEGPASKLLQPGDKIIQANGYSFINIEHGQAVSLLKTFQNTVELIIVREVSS
Sequence of ERBIN-P0071 (Homo sapiens) (Q99569 whole entry, looked up): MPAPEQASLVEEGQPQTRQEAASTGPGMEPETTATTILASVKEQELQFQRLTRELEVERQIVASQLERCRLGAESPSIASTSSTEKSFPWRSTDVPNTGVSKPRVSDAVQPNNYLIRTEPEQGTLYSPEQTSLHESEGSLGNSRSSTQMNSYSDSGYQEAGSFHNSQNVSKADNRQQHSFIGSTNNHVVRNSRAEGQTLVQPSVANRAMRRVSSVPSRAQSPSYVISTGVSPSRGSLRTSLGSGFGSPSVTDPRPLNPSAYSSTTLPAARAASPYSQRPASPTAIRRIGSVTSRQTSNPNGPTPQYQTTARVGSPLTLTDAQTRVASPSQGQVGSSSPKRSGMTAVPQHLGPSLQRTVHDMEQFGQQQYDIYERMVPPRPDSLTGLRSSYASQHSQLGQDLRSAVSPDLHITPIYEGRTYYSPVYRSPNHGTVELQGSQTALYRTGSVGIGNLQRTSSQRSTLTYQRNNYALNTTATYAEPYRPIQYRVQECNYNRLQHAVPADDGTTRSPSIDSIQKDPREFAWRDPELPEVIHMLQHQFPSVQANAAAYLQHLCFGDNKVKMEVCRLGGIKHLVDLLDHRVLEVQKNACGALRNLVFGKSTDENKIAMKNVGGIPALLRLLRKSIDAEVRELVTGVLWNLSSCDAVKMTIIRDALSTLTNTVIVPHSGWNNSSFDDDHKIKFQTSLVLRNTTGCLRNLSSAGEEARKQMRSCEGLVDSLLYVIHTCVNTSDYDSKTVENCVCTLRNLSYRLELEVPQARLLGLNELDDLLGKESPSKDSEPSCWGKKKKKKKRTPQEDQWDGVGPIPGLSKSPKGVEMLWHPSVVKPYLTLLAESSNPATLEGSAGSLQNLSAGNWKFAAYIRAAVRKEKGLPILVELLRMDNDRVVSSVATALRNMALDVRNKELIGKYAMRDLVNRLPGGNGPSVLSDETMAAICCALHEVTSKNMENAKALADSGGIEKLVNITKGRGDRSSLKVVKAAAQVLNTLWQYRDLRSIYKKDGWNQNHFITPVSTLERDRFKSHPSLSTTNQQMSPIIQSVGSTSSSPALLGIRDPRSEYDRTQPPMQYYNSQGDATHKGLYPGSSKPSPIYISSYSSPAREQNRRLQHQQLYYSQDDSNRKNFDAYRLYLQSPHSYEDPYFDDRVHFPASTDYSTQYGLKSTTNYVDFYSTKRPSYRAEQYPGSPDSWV

MDA-MB-231 [8] = assay: Inhibition of cell migration in wild-type human MDA-MB-231 cells assessed as decrease in euclidean distance at 100 uM incubated for 24 hrs by 2D phase contrast video microscopic analysis; type: functional, cell-based
MDA-MB-231 [9] = assay: Inhibition of cell migration in human MDA-MB-231 cells with syntenin CRISPR/Cas9 knockout assessed as decrease in euclidean distance at 100 uM incubated for 24 hrs by 2D phase contrast video microscopic analysis; type: functional, cell-based
MDA-MB-231 [10] = assay: Inhibition of cell migration in wild-type human MDA-MB-231 cells assessed as decrease in migration speed at 1 to 10 uM incubated for 24 hrs by 2D phase contrast video microscopic analysis; type: functional, cell-based; settings: dose 1-10 µM
MDA-MB-231 [11] = assay: Inhibition of cell migration in wild-type human MDA-MB-231 cells assessed as decrease in euclidean distance at 1 to 10 uM incubated for 24 hrs by 2D phase contrast video microscopic analysis; type: functional, cell-based; settings: dose 1-10 µM
[12] = target: T1, Syntenin-1/Syndecan-2 (Homo sapiens); assay: Inhibition of full length N-terminal GST-tagged human syntenin-1 expressed in Escherichia coli ER2566/syndecan2 (unknown origin) interaction at 200 uM incubated for 16 hrs in the presence of NP-40 by HTRF assay

| IC50 (Syntenin-1/Syndecan-2) | Compound | also measured |
| --- | --- | --- |
| > 500 µM | O=C(O)[C@H](Cc1ccccc1)NC(=O)[C@H](Cc1ccccc1)N1Cc2ccccc2C1=O | – |
| 78 µM | C[C@H](NC(=O)[C@H](Cc1ccc(Cl)cc1)N1Cc2ccccc2C1=O)C(=O)O | – |
| 44 µM | C[C@H](NC(=O)[C@H](Cc1ccc(O)cc1)N1Cc2ccccc2C1=O)C(=O)O | – |
| 63 µM | C[C@H](NC(=O)C(CSCc1ccccc1)N1Cc2ccccc2C1=O)C(=O)O (single isomer, unassigned) | – |
| 0.4 µM | CC(=O)c1ccc(F)c(-c2ccc(C[C@@H](C(=O)N[C@@H](C)C(=O)O)N3Cc4cc(Br)ccc4C3=O)cc2)c1 | Activity (MDA-MB-231 [2]): inactive; inhibition [3]: inactive; inhibition (MDA-MB-231 [4]): Active; Activity (MDA-MB-231 [5]): inactive; inhibition (MDA-MB-231 [6]): inactive; Kd (Syntenin-1): 1.8 µM; inhibition [7]: inactive; inhibition (MDA-MB-231 [8]): Active; inhibition (MDA-MB-231 [9]): inactive; inhibition (MDA-MB-231 [10]): Active; inhibition (MDA-MB-231 [11]): Active |
| 9.9 µM | C[C@H](NC(=O)[C@H](Cc1ccc(-c2ccccc2F)cc1)N1Cc2ccccc2C1=O)C(=O)O | – |
| 180 µM | C[C@H](NC(=O)[C@H](Cc1ccc(C#N)cc1)N1Cc2ccccc2C1=O)C(=O)O | – |
| 33 µM | C[C@H](NC(=O)[C@H](Cc1c[nH]c2ccccc12)N1Cc2ccccc2C1=O)C(=O)O | – |
| 0.82 µM | CC(=O)Nc1ccc(-c2ccc(C[C@@H](C(=O)N[C@@H](C)C(=O)O)N3Cc4cc(Br)ccc4C3=O)cc2)cc1 | – |
| 5.2 µM | C[C@H](NC(=O)[C@H](Cc1ccc2ccccc2c1)N1Cc2cc(Br)ccc2C1=O)C(=O)O | – |
| 6.3 µM | C[C@H](NC(=O)[C@H](Cc1ccc(-c2ccc3c(c2)C(=O)N(C)C3)cc1)N1Cc2ccccc2C1=O)C(=O)O | – |
| 13 µM | C[C@H](NC(=O)[C@H](Cc1ccc2ccccc2c1)N1Cc2ccccc2C1=O)C(=O)O | – |
| 67 µM | C[C@H](NC(=O)[C@H](Cc1ccccc1)N1Cc2ccccc2C1=O)C(=O)O | – |
| 35 µM | C[C@H](NC(=O)[C@H](Cc1ccc(Br)cc1)N1Cc2ccccc2C1=O)C(=O)O | – |
| 4 µM | C[C@H](NC(=O)[C@H](Cc1ccc(-c2ccc3occc(=O)c3c2)cc1)N1Cc2ccccc2C1=O)C(=O)O | – |
| 7.7 µM | CC(=O)Nc1ccc(-c2ccc(C[C@@H](C(=O)N[C@@H](C)C(=O)O)N3Cc4ccccc4C3=O)cc2)cc1 | – |
| > 500 µM | CC(C)C[C@H](NC(=O)[C@H](Cc1ccccc1)N1Cc2ccccc2C1=O)C(=O)O | – |
| > 500 µM | CC(C)[C@H](NC(=O)[C@H](Cc1ccccc1)N1Cc2ccccc2C1=O)C(=O)O | inhibition (MDA-MB-231 [4]): Active; inhibition (MDA-MB-231 [8]): Active |
| > 200 µM | Cc1ccc(C[C@@H](C(=O)N[C@@H](C)C(=O)O)N2Cc3ccccc3C2=O)cc1 | – |
| 128 µM | COc1ccc(C[C@@H](C(=O)N[C@@H](C)C(=O)O)N2Cc3ccccc3C2=O)cc1 | – |
| 4.2 µM | CC(=O)c1ccc(F)c(-c2ccc(C[C@@H](C(=O)N[C@@H](C)C(=O)O)N3Cc4ccccc4C3=O)cc2)c1 | – |
| 5.3 µM | C[C@H](NC(=O)[C@H](Cc1ccc(-c2cc(CO)ccc2F)cc1)N1Cc2ccccc2C1=O)C(=O)O | – |
| 10 µM | COc1ccc(F)c(-c2ccc(C[C@@H](C(=O)N[C@@H](C)C(=O)O)N3Cc4ccccc4C3=O)cc2)c1 | – |
| 1.5 µM | C[C@H](NC(=O)[C@H](Cc1ccc(-c2cc(CO)ccc2F)cc1)N1Cc2cc(Br)ccc2C1=O)C(=O)O | – |

More lines, now with the values behind:

| Compound | IC50 (Syntenin-1/Syndecan-2) | also measured |
| --- | --- | --- |
| CC(C)C[C@H](NC(=O)[C@H](CC(C)C)N1Cc2ccccc2C1=O)C(=O)O | > 500 µM | – |
| CCOC(=O)C(Cc1c[nH]c2ccccc12)NC(=O)C(Cc1ccccc1)N1C(=O)c2ccccc2C1=O (centres undefined) | – | inhibition [1]: > 60% |
| CC(C)C[C@@H](C(=O)N[C@@H](Cc1ccccc1)C(=O)O)N1Cc2ccccc2C1=O | > 500 µM | – |
| CC(C)C[C@@H](C(=O)N[C@H](C(=O)O)C(C)C)N1Cc2ccccc2C1=O | > 500 µM | – |
| CC[C@H](C)[C@H](NC(=O)[C@H](CC(C)C)N1Cc2ccccc2C1=O)C(=O)O | > 500 µM | – |
| CC(C)[C@@H](C(=O)N[C@@H](Cc1ccccc1)C(=O)O)N1Cc2ccccc2C1=O | > 500 µM | – |
| CC(C)[C@@H](C(=O)N[C@@H](C)C(=O)O)N1Cc2cc(Cl)ccc2C1=O | 14 µM | – |
| CC(C)C[C@H](NC(=O)[C@H](C(C)C)N1Cc2ccccc2C1=O)C(=O)O | > 500 µM | – |
| COc1cc2cc(C(=O)N(C)CCOc3cccc(Cl)c3)[nH]c2c(OC)c1OC | – | inhibition [1]: > 60% |
| CC(C)[C@@H](C(=O)N[C@@H](C)C(=O)O)N1Cc2ccccc2C1=O | 76 µM | Activity (MDA-MB-231 [2]): inactive; inhibition [3]: inactive; inhibition (MDA-MB-231 [4]): Active; Activity (MDA-MB-231 [5]): inactive; inhibition (MDA-MB-231 [6]): inactive; inhibition [7]: inactive; inhibition (MDA-MB-231 [8]): Active; inhibition (MDA-MB-231 [9]): inactive; inhibition [1]: > 60%; inhibition [12]: Active |
| COc1ccccc1NC(=O)N1CCCC(c2nc(O)c3nnn(Cc4ccc(C)cc4)c3n2)C1 (centres undefined) | – | inhibition [1]: > 60% |
| C[C@H](NC(=O)[C@H](Cc1ccccc1)NC(=O)c1cc2cc(Cl)ccc2n1C)C(=O)O | – | inhibition [1]: > 60% |
| CC(C)C[C@@H](C(=O)N[C@@H](C)C(=O)O)N1Cc2ccccc2C1=O | 213 µM | – |
| CC[C@H](C)[C@H](NC(=O)[C@H](C(C)C)N1Cc2ccccc2C1=O)C(=O)O | > 500 µM | – |
| CC[C@H](C)[C@H](NC(=O)[C@H](Cc1ccccc1)N1Cc2ccccc2C1=O)C(=O)O | > 500 µM | – |
| CCOc1nc2ccccc2nc1N1CCCC(C(=O)N2CCc3ccccc3C2)C1 (centres undefined) | – | inhibition [1]: > 60% |
| CC(C)[C@@H](C(=O)N[C@@H](C)C(=O)O)N1Cc2cc(Br)ccc2C1=O | 20 µM | – |
| CC(C)[C@H](NC(=O)[C@H](C(C)C)N1Cc2ccccc2C1=O)C(=O)O | > 500 µM | – |
| CC(Oc1ccc(-c2cc(N)nc3[nH]ccc23)cc1Cl)C(=O)O (centres undefined) | – | inhibition [1]: > 60% |
| CC(C)[C@@H](C(=O)N[C@@H](C)C(=O)O)N1Cc2ccc(Br)cc2C1=O | > 200 µM | – |
| CCOc1ccc2[nH]c(=O)c(CN(C3CCCCC3)C(CC)c3nnnn3C(C)(C)C)cc2c1 (centres undefined) | – | inhibition [1]: > 60% |
| CC(C)[C@@H](C(=O)N[C@@H](C)C(=O)O)N1Cc2c(Cl)cccc2C1=O | > 200 µM | – |
